Experimental data reported in US9028806B2, “Method for impregnation with supercritical CO2” (Pierre Fabre Medicament, priority 2009, dated 2015).

Tests used:
[1] = Dissolution kinetics of ketoprofen in water at 37° C.; format: physicochemical; settings: equivalent to 50 mg ketoprofen in 50 ml water, 400 rpm
Experimental: In a 100 ml Erlenmeyer, introduce an accurately measured test sample equivalent to 50 mg of ketoprofen, pure or impregnating the cross-linked PVP. Add 50 ml of water. Place under magnetic stirring at 400 rpm in a water bath at 37° C.+/−2° C. […] Filter these samples on Gelman GHP Acrodisc 0.45 μm polypropylene filters. The solution should be clear.
Determine the ketoprofen content by means of liquid chromatography.

[2] = Dissolution kinetics of vinflunine in pH 6.8 buffer; format: physicochemical; settings: equivalent to 50 mg vinflunine in 50 ml pH 6.8 buffer, 400 rpm
Experimental: In a 100 ml Erlenmeyer, introduce an accurately measured test sample equivalent to 50 mg of vinflunine. Add 50 ml of pH 6.8 buffer. Place under magnetic stirring at 400 rpm. Take a 2 ml sample under magnetic stirring at 15, 30, 60 and 120 minutes. Filter these samples on Gelman GHP Acrodisc 0.45 μm polypropylene filters. The solution should be clear.
Determine the vinflunine content by means of liquid chromatography.

[3] = Exploratory Pk on rats, oral route (bioavailability)
Experimental: The study was conducted with exploratory Pk on rats: 2 mg/kg in a single dose, oral route
Administration vehicle: distilled water (Aguettant)
Positive more Electrospray (ESI+) detection LC/MS/MS (liquid chromatography/mass spectrometry/mass spectrometry) bioanalysis method
Pharmacokinetic analysis with Kinetica (Thermo Instruments, US)

Structure (SMILES) | Ketoprofen Dissolution 15 min ([1]; 15 min) [µg/mL] | Ketoprofen Dissolution 60 min ([1]; 60 min) [µg/mL] | Vinflunine Dissolution 15 min ([2]; 15 min) [µg/mL] | Vinflunine Dissolution 30 min ([2]; 30 min) [µg/mL] | Vinflunine Dissolution 60 min ([2]; 60 min) [µg/mL] | Vinflunine Dissolution 120 min ([2]; 120 min) [µg/mL] | CL ([3]; fasted rats, 2 mg/kg single dose, oral route) [L/h] | Vinflunine level at 0 ([3]; fasted rats, 2 mg/kg single dose, oral route, time 0) | Vinflunine level at 0.25 ([3]; fasted rats, 2 mg/kg single dose, oral route, time 0.25) | Vinflunine level at 0.5 ([3]; fasted rats, 2 mg/kg single dose, oral route, time 0.5) | Vinflunine level at 1 ([3]; fasted rats, 2 mg/kg single dose, oral route, time 1) | Vinflunine level at 2 ([3]; fasted rats, 2 mg/kg single dose, oral route, time 2) | Vinflunine level at 4 ([3]; fasted rats, 2 mg/kg single dose, oral route, time 4) | Vinflunine level at 6 ([3]; fasted rats, 2 mg/kg single dose, oral route, time 6) | Vinflunine level at 8 ([3]; fasted rats, 2 mg/kg single dose, oral route, time 8) | Vinflunine level at 24 ([3]; fasted rats, 2 mg/kg single dose, oral route, time 24) | AUC(0-t) ([3]; rat, in vivo, po, 2 mg/kg) [ng·h/mL] | Cmax ([3]; rat, in vivo, po, 2 mg/kg) [ng/mL] | Tmax ([3]; rat, in vivo, po, 2 mg/kg) [h] | half-life ([3]; rat, in vivo, po, 2 mg/kg) [h]
CC(C(=O)O)c1cccc(C(=O)c2ccccc2)c1 (centres unmarked) [ketoprofen, Ketoprofen] | 173 | 171 |  |  |  |  |  |  |  |  |  |  |  |  |  |  |  |  |  | 
CC[C@]12C=CCN3CC[C@@]4(c5cc([C@@]6(C(=O)OC)C[C@@H]7C[C@@H](C(C)(F)F)CN(Cc8c6[nH]c6ccccc86)C7)c(OC)cc5N(C)[C@H]4[C@@](O)(C(=O)OC)[C@@H]1OC(C)=O)[C@@H]32 [Vinflunine base, Vinflunine] |  |  | 252 | 387 | 520 | 606 | 8.70 | 0 | 19.37 | 11.75 | 17.90 | 14.93 | 13.80 | 12.03 | 10.88 | 2.59 | 200 | 19.4 | 0.25 | 7.9
